Test results taken from patent US20240018211A1, “EXOSOME COMPRISING OVEREXPRESSED FC RECEPTOR OR PORTION THEREOF, AND METHOD FOR PREPARING SAME” (EXOCOBIO INC, priority 2021, published 2024).

System: MDA-MB-231 human breast cancer cell line
Conditions: MDA-MB-231, 10,000 cells/well; same amount of doxorubicin; exosomes 2.56×10^11 particles/mL; FIG. 11

## COc1cccc2c1C(=O)c1c(O)c3c(c(O)c1C2=O)C[C@@](O)(C(=O)CO)C[C@@H]3O[C@H]1C[C@H](N)[C@H](O)[C@H](C)O1 [doxorubicin]
  growth of the breast cancer cells: inhibited the growth of the breast cancer cells
